# Experiments:
# [1] = tested on: Klebsiella pneumoniae KPC2; assay: MIC alone against β-lactamase producing strain; format: cell-based; conditions: substance alone
# Method: (§1) Minimum Inhibitory Concentrations (MICs) were determined by the broth microdilution method in accordance with the Clinical and Laboratory Standards Institute (CLSI) guidelines. Clinical Laboratory Standards Institute: Methods for Dilution Antimicrobial Susceptability Tests for Bacteria That Grow Aerobically (8th Ed. (2009)) M07-A8. In brief, organism suspensions were adjusted to a 0.5 McFarland standard and further diluted to yield a final inoculum between 3×10^5 and 7×10^5 colony-forming units (CFU)/mL. Bacterial inocula were made in sterile, cation adjusted Mueller-Hinton Broth (Beckton Dickinson) for either Escherichia coli, Klebsiella pneumoniae, or Pseudomonas aeruginosa. Haemophilus influenzae bacterial inocula were made in sterile, cation adjusted Mueller-Hinton Broth (Beckton Dickinson) containing 0.5% yeast extract (Beckton Dickinson) plus 15 μg/ml Bovine Hematin (Sigma) and 15 μg/ml β-nicotinamide adenine dinucleotide (Sigma). Bacterial inocula were made in sterile, cation adjusted Mueller-Hinton Broth (Beckton Dickinson) for Staphylococcus aureus or sterile, cation adjusted Mueller-Hinton Broth containing 2.5% lysed horse blood (Hema Resource & Supply Inc.) for Streptococcus pneumoniae and Streptococcus pyogenes. An inoculum volume of 100 uL was added to wells (using a Tecan EVO robot) containing 2 uL of DMSO containing 2-fold serial dilutions of drug. […] All inoculated microdilution trays were incubated in ambient air at 35° C. for 18-24 hours. Following incubation, the lowest concentration of the drug that prevented visible growth as read at OD600 nm was recorded as the MIC. Performance of the assay was monitored by the use of laboratory quality-control strains and commercially available control compounds with defined MIC spectrums, in accordance with CLSI guidelines.
# [2] = tested on: Pseudomonas aeruginosa PER-1, OXA-10; assay: MIC alone against β-lactamase producing strain; format: cell-based; conditions: substance alone
# Method: as §1
# [3] = tested on: Klebsiella pneumoniae KPC2; assay: Synergy with β-lactams (MIC of β-lactam at fixed inhibitor concentration); format: cell-based; conditions: MIC of ceftazidime + inhibitor at fixed 4 ug/ml
# Method: (§2) Synergy with β-lactams was assessed against several organisms producing a variety of β-lactamases belonging to different classes. Bush & Jacoby, Updated Functional Classification of β-Lactamases, Antimicrobial Agents and Chemotherapy, 54:969-76 (2010). In the assays, growth inhibitory activity (MIC) was measured using either two-fold dilutions of the partner β-lactam at a fixed concentration of compounds of formula (I). Compounds were prepared in DMSO, and MIC determinations using the compound of formula (I)/β-lactam combinations were done according to the CLSI guidelines. Clinical Laboratory Standards Institute: Methods for Dilution Antimicrobial Susceptability Tests for Bacteria That Grow Aerobically (8th Ed. (2009)) M07-A8. Synergy was defined as a four-fold or more reduction in the MIC of the β-lactam in the presence of the compound of formula (I), compared to the β-lactam alone.
# [4] = tested on: Pseudomonas aeruginosa PER-1, OXA-10; assay: as above; format: cell-based; conditions: MIC of ceftazidime + inhibitor at fixed 4 ug/ml
# Method: as §2
# [5] = tested on: S. aureus (MRSA); assay: MIC, broth microdilution (CLSI); format: cell-based, Staphylococcus aureus; conditions: compound alone
# Method: as §1
# [6] = tested on: S. aureus (MSSA); assay: MIC, broth microdilution (CLSI); format: cell-based, Staphylococcus aureus; conditions: compound alone
# Method: as §1
# [7] = tested on: Pseudomonas aeruginosa; assay: MIC, broth microdilution (CLSI); format: cell-based; conditions: compound alone
# Method: as §1
# [8] = tested on: Haemophilus influenzae; assay: MIC, broth microdilution (CLSI); format: cell-based; conditions: compound alone
# Method: as §1
# [9] = tested on: Klebsiella pneumoniae; assay: MIC, broth microdilution (CLSI); format: cell-based; conditions: compound alone
# Method: as §1
# [10] = tested on: Streptococcus pneumoniae; assay: MIC, broth microdilution (CLSI); format: cell-based; conditions: compound alone
# Method: as §1
# [11] = tested on: Escherichia coli; assay: MIC, broth microdilution (CLSI); format: cell-based; conditions: compound alone
# Method: as §1
# [12] = tested on: Streptococcus pyogenes; assay: MIC, broth microdilution (CLSI); format: cell-based; conditions: compound alone
# Method: as §1
compound,measurement,setting,value
CC(C)C1=C[C@@H]2CN(C(=O)N2OS(=O)(=O)[O-])[C@@H]1C(N)=O.[Na+] [Example 11],MIC Klebsiella pneumoniae KPC2,[1],>16 µg/mL
same,"MIC Pseudomonas aeruginosa PER-1, OXA-10",[2],>16 µg/mL
same,MIC Klebsiella pneumoniae KPC2,[3],1 µM
same,"MIC Pseudomonas aeruginosa PER-1, OXA-10",[4],16 µM
same,MIC S. aureus (MRSA),[5],>200 µg/mL
same,MIC S. aureus (MSSA),[6],100 µg/mL
same,MIC P. aeruginosa,[7],>200 µg/mL
same,MIC H. influenzae,[8],>200 µg/mL
same,MIC K. pneumon.,[9],>200 µg/mL
same,MIC S. pneumon.,[10],25 µg/mL
same,MIC E. coli,[11],>200 µg/mL
same,MIC S. pyogenes,[12],25 µg/mL

# — US9623014B2 (Entasis Therapeutics Limited, priority 2012, dated 2017)
